Each compound was assayed against T1, Human GO (Homo sapiens, UniProt Q9UJM8) (assay: GO enzymatic assay (coupled fluorescence/HRP assay, glycolate substrate)). Conditions: Table 2; read-out: Range (range of IC50 values calculated from the enzymatic assays).
T1 construct: purchased Novus Biologicals NBP1-72412
T1 sequence (Q9UJM8 1-370): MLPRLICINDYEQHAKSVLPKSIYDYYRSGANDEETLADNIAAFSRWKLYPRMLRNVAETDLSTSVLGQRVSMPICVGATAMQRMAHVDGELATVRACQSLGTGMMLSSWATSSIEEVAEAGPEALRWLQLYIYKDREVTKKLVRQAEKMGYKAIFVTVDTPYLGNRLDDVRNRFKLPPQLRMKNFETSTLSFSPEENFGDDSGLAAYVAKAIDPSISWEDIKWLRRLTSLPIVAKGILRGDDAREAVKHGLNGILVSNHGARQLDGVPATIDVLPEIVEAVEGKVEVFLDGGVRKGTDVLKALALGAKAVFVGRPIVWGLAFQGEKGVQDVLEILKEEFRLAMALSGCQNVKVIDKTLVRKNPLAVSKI
Assay type: biochemical
Procedure, shortened: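 Human GO incubated with glycolate substrate in 50 mM potassium phosphate, pH 7, with varying inhibitor concentrations. Activity read by coupled HRP fluorescence. IC50 taken from variable-slope sigmoidal dose-response fits of percent inhibition relative to DMSO control.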

Row | Compound | IC50
1 | O=C(O)c1[nH]nnc1[S+]([O-])c1ccc(Cl)c(OCC2CCCCC2)c1 (stereo not shown) [Compound 335, 4-((4-chloro-3-(cyclohexylmethoxy)phenyl)sulfinyl)-1H-1,2,3-triazole-5-carboxylic acid] | 1000 to 10000 nM
2 | O=C(O)c1[nH]nnc1SC1CCN(c2ccc(OC(F)(F)F)c(Cl)c2)CC1 [Compound 346, 4-((1-(3-chloro-4-(trifluoromethoxy)phenyl)piperidin-4-yl)thio)-1H-1,2,3-triazole-5-carboxylic acid] | < 100 nM
3 | O=C(O)c1[nH]nnc1S[C@H]1CC[C@@H](c2ccc(N3CCCC3)cc2)CC1 [Compound 347, 4-(((cis)-4-(4-(pyrrolidin-1-yl)phenyl)cyclohexyl)thio)-1H-1,2,3-triazole-5-carboxylic acid 2,2,2-trifluoroacetate] | < 100 nM
4 | O=C(O)c1[nH]nnc1S[C@H]1CC[C@@H](c2ccc(OC(F)(F)F)cc2)CC1 [Compound 348, 4-(((cis)-4-(4-(trifluoromethoxy)phenyl)cyclohexyl)thio)-1H-1,2,3-triazole-5-carboxylic acid] | < 100 nM
5 | CC1CCCCN1c1ccc(-c2ccc(Sc3nn[nH]c3C(=O)O)cc2)cc1 (stereo not shown) [Compound 349, 4-((4′-(2-methylpiperidin-1-yl)-[1,1′-biphenyl]-4-yl)thio)-1H-1,2,3-triazole-5-carboxylic acid 2,2,2-trifluoroacetate] | < 100 nM
6 | O=C(O)c1[nH]nnc1CSC1CCN(c2cc(Cl)cc(Cl)c2)CC1 [Compound 350, 4-(((1-(3,5-dichlorophenyl)piperidin-4-yl)thio)methyl)-1H-1,2,3-triazole-5-carboxylic acid 2,2,2-trifluoroacetate] | < 100 nM
7 | O=C(O)c1[nH]nnc1Sc1cccc(OC2CCCC2)c1 [Compound 351, 4-((3-(cyclopentyloxy)phenyl)thio)-1H-1,2,3-triazole-5-carboxylic acid 2,2,2-trifluoroacetate] | 100 to 1000 nM
8 | N#Cc1ccc([C@H]2CC[C@@H](Sc3nn[nH]c3C(=O)O)CC2)cc1 [Compound 352, 4-(((cis)-4-(4-cyanophenyl)cyclohexyl)thio)-1H-1,2,3-triazole-5-carboxylic acid] | < 100 nM
9 | O=C(O)c1[nH]nnc1Oc1ccc(Cl)c(OCC2CCCC2)c1 [Compound 353, 4-(4-chloro-3-(cyclopentylmethoxy)phenoxy)-1H-1,2,3-triazole-5-carboxylic acid 2,2,2-trifluoroacetate] | < 100 nM
10 | O=C(O)c1[nH]nnc1OC1CCN(c2cc(Cl)cc(OC(F)(F)F)c2)CC1 [Compound 354, 4-((1-(3-chloro-5-(trifluoromethoxy)phenyl)piperidin-4-yl)oxy)-1H-1,2,3-triazole-5-carboxylic acid] | < 100 nM
11 | O=C(O)c1[nH]nnc1O[C@H]1CC[C@@H](c2cc(Cl)cc(OC(F)(F)F)c2)CC1 [Compound 355, 4-(((cis)-4-(3-chloro-5-(trifluoromethoxy)phenyl)cyclohexyl)oxy)-1H-1,2,3-triazole-5-carboxylic acid] | < 100 nM
12 | O=C(O)c1[nH]nnc1O[C@H]1CC[C@@H](c2ccc(N3CCCC3)cc2)CC1 [Compound 356, 4-(((cis)-4-(4-(pyrrolidin-1-yl)phenyl)cyclohexyl)oxy)-1H-1,2,3-triazole-5-carboxylic acid 2,2,2-trifluoroacetate] | < 100 nM
13 | O=C(O)c1[nH]nnc1Oc1cc(OCC2CCCC2)ccc1Cl [Compound 357, 4-(2-chloro-5-(cyclopentylmethoxy)phenoxy)-1H-1,2,3-triazole-5-carboxylic acid] | < 100 nM
14 | O=C(O)c1[nH]nnc1Oc1cc(Cl)cc(OC(F)(F)F)c1 [Compound 358, 4-(3-chloro-5-(trifluoromethoxy)phenoxy)-1H-1,2,3-triazole-5-carboxylic acid] | < 100 nM
15 | N#Cc1ccc(N2CCC(Oc3nn[nH]c3C(=O)O)CC2)cc1 [Compound 359, 4-((1-(4-cyanophenyl)piperidin-4-yl)oxy)-1H-1,2,3-triazole-5-carboxylic acid 2,2,2-trifluoroacetate] | < 100 nM
16 | O=C(O)c1[nH]nnc1O[C@H]1CC[C@@H](c2ccc(OC(F)(F)F)c(Cl)c2)CC1 [Compound 360, 4-(((cis)-4-(3-chloro-4-(trifluoromethoxy)phenyl)cyclohexyl)oxy)-1H-1,2,3-triazole-5-carboxylic acid] | < 100 nM
17 | O=C(O)c1[nH]nnc1OC1CCN(c2ccc(OC(F)(F)F)c(Cl)c2)CC1 [Compound 361, 4-((1-(3-chloro-4-(trifluoromethoxy)phenyl)piperidin-4-yl)oxy)-1H-1,2,3-triazole-5-carboxylic acid] | < 100 nM
18 | O=C(O)c1[nH]nnc1Oc1ccc(Cl)c(OCc2ccc(F)cc2)c1 [Compound 362, 4-(4-chloro-3-((4-fluorobenzyl)oxy)phenoxy)-1H-1,2,3-triazole-5-carboxylic acid] | < 100 nM
19 | NC(=O)c1ccc([C@H]2CC[C@@H](Oc3nn[nH]c3C(=O)O)CC2)cc1 [Compound 363, 4-(((cis)-4-(4-carbamoylphenyl)cyclohexyl)oxy)-1H-1,2,3-triazole-5-carboxylic acid 2,2,2-trifluoroacetate] | < 100 nM
20 | NC(=O)c1ccc([C@H]2CC[C@H](Oc3nn[nH]c3C(=O)O)CC2)cc1 [Compound 364, 4-(((trans)-4-(4-carbamoylphenyl)cyclohexyl)oxy)-1H-1,2,3-triazole-5-carboxylic acid 2,2,2-trifluoroacetate] | < 100 nM
21 | N#Cc1ccc([C@H]2CC[C@@H](Oc3nn[nH]c3C(=O)O)CC2)cc1 [Compound 365, 4-(((cis)-4-(4-cyanophenyl)cyclohexyl)oxy)-1H-1,2,3-triazole-5-carboxylic acid] | < 100 nM

The remaining lines, values ahead:

Row | IC50 | Compound
22 | < 100 nM | CN(Cc1nn[nH]c1C(=O)O)c1ccc(-c2ccc(OC(F)(F)F)cc2)cc1 [Compound 333, 4-((methyl(4′-(trifluoromethoxy)-[1,1′-biphenyl]-4-yl)amino)methyl)-1H-1,2,3-triazole-5-carboxylic acid 2,2,2-trifluoroacetate]
23 | < 100 nM | O=C(O)c1[nH]nnc1-c1cc(OCC2CC2)cc(C(F)(F)F)c1 [Compound 334, 4-(3-(cyclopropylmethoxy)-5-(trifluoromethyl)phenyl)-1H-1,2,3-triazole-5-carboxylic acid]
24 | < 100 nM | O=C(O)c1[nH]nnc1Sc1ccc(Cl)c(OCC2CCCCC2)c1 [Compound 336, 4-((4-chloro-3-(cyclohexylmethoxy)phenyl)thio)-1H-1,2,3-triazole-5-carboxylic acid]
25 | < 100 nM | O=C(O)c1[nH]nnc1S[C@H]1CC[C@@H](c2cc(Cl)cc(OC(F)(F)F)c2)CC1 [Compound 337, 4-(((cis)-4-(3-chloro-5-(trifluoromethoxy)phenyl)cyclohexyl)thio)-1H-1,2,3-triazole-5-carboxylic acid]
26 | < 100 nM | O=C(O)c1[nH]nnc1SC1CCN(c2cc(Cl)cc(OC(F)(F)F)c2)CC1 [Compound 338, 4-((1-(3-chloro-5-(trifluoromethoxy)phenyl)piperidin-4-yl)thio)-1H-1,2,3-triazole-5-carboxylic acid]
27 | < 100 nM | O=C(O)c1[nH]nnc1Sc1ccc(N2CCC(F)(F)CC2)cc1 [Compound 339, 4-((4-(4,4-difluoropiperidin-1-yl)phenyl)thio)-1H-1,2,3-triazole-5-carboxylic acid 2,2,2-trifluoroacetate]
28 | < 100 nM | O=C(O)c1[nH]nnc1SC1CCC(c2cccc(N3CCCCC3)c2)CC1 (stereo not shown) [Compound 340, 4-((4-(3-(piperidin-1-yl)phenyl)cyclohexyl)thio)-1H-1,2,3-triazole-5-carboxylic acid 2,2,2-trifluoroacetate]
29 | < 100 nM | CN1CCN(c2ccc([C@H]3CC[C@@H](Sc4nn[nH]c4C(=O)O)CC3)cc2)CC1 [Compound 341, 4-(((cis)4-(4-(4-methylpiperazin-1-yl)phenyl)cyclohexyl)thio)-1H-1,2,3-triazole-5-carboxylic acid 2,2,2-trifluoroacetate]
30 | < 100 nM | O=C(O)c1[nH]nnc1Sc1ccc(-c2ccc(N3CCCCC3)cc2)c(Cl)c1 [Compound 342, 4-((2-chloro-4′-(piperidin-1-yl)-[1,1′-biphenyl]-4-yl)thio)-1H-1,2,3-triazole-5-carboxylic acid 2,2,2-trifluoroacetate]
31 | < 100 nM | O=C(O)c1[nH]nnc1Sc1cc(OCC2CCCC2)ccc1Cl [Compound 343, 4-((2-chloro-5-(cyclopentylmethoxy)phenyl)thio)-1H-1,2,3-triazole-5-carboxylic acid]
32 | < 100 nM | N#Cc1ccc(N2CCC(Sc3nn[nH]c3C(=O)O)CC2)cc1 [Compound 344, 4-((1-(4-cyanophenyl)piperidin-4-yl)thio)-1H-1,2,3-triazole-5-carboxylic acid 2,2,2-trifluoroacetate]
33 | < 100 nM | O=C(O)c1[nH]nnc1S[C@H]1CC[C@@H](c2ccc(Cl)c(Cl)c2)CC1 [Compound 345, 4-(((cis)-4-(3,4-dichlorophenyl)cyclohexyl)thio)-1H-1,2,3-triazole-5-carboxylic acid 2,2,2-trifluoroacetate]

Same assay, conditions: Table 3; read-out: Range (range of IC50 values calculated from the enzymatic assays)

Row | IC50 | Compound
34 | 100 to 1000 nM | O=C(O)c1[nH]nnc1OC(Cc1ccc(-c2ccc(OC(F)(F)F)cc2)cc1)Cc1ccc(-c2ccc(OC(F)(F)F)cc2)cc1 [Compound 366, 4-((1,3-bis(4′-(trifluoromethoxy)-[1,1′-biphenyl]-4-yl)propan-2-yl)oxy)-1H-1,2,3-triazole-5-carboxylic acid]

Source: US11384055B2 (BIOMARIN PHARMACEUTICAL INC., priority 2017, dated 2022)
